According to PubChem BioAssay AID1963983 (Molecular Pharmacology Branch, DTP, NCI, 2024):

Tested on: 186277-243-T-J2-PDC multi-cell spheroid viability
Assay: Anticancer human tumor 186277-243-T-J2-PDC patient-derived colon adenocarcinoma cell line growth inhibition [PI3K]
Settings: for IC50: curve of first compound; for viability, T/C: stronger effect = lower value
Summary of the method: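 Spheroid viability read-out. Co-cultures contained the tumor line plus HUVEC and human MSCs. Each agent was paired with a PI3K inhibitor (inavolisib, alpelisib, duvelisib, copanlisib) across half-log dilutions starting at clinical Cmax, or at 10 microM when Cmax was unknown.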

[1] = second compound 0.00316 µM, first compound 0.0316 µM
[2] = second compound 0.00316 µM, first compound 0.1 µM
[3] = second compound 0.00316 µM, first compound 0.316 µM
[4] = second compound 0.00316 µM, first compound 1 µM
[5] = second compound 0.00316 µM, first compound 3.16 µM
[6] = second compound 0.00316 µM, first compound 10 µM
[7] = second compound 0.01 µM, first compound 0.0316 µM
[8] = second compound 0.01 µM, first compound 0.1 µM
[9] = second compound 0.01 µM, first compound 0.316 µM
[10] = second compound 0.01 µM, first compound 1 µM
[11] = second compound 0.01 µM, first compound 3.16 µM
[12] = second compound 0.01 µM, first compound 10 µM
[13] = second compound 0.0316 µM, first compound 0.0316 µM
[14] = second compound 0.0316 µM, first compound 0.1 µM
[15] = second compound 0.0316 µM, first compound 0.316 µM
[16] = second compound 0.0316 µM, first compound 1 µM
[17] = second compound 0.0316 µM, first compound 3.16 µM
[18] = second compound 0.0316 µM, first compound 10 µM
[19] = second compound 0.1 µM, first compound 0.0316 µM
[20] = second compound 0.1 µM, first compound 0.1 µM
[21] = second compound 0.1 µM, first compound 0.316 µM
[22] = second compound 0.1 µM, first compound 1 µM
[23] = second compound 0.1 µM, first compound 3.16 µM
[24] = second compound 0.1 µM, first compound 10 µM
[25] = second compound 0.316 µM, first compound 0.0316 µM
[26] = second compound 0.316 µM, first compound 0.1 µM
[27] = second compound 0.316 µM, first compound 0.316 µM
[28] = second compound 0.316 µM, first compound 1 µM
[29] = second compound 0.316 µM, first compound 3.16 µM
[30] = second compound 0.316 µM, first compound 10 µM
[31] = second compound 1 µM, first compound 0.0316 µM
[32] = second compound 1 µM, first compound 0.1 µM
[33] = second compound 1 µM, first compound 0.316 µM
[34] = second compound 1 µM, first compound 1 µM
[35] = second compound 1 µM, first compound 3.16 µM
[36] = second compound 1 µM, first compound 10 µM
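Also: spheroids exposed to compounds for seven days before viability reading.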
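For viability, T/C in this document: 100% = DMSO vehicle control viability.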

`C#Cc1c(F)ccc2cc(O)cc(-c3ncc4c(N5CC6CCC(C5)N6)nc(OCC56CCCN5CC(F)C6)nc4c3F)c12` (stereo not drawn) + COc1c(OCCCN2CCOCC2)ccc2c3n(c(=NC(=O)c4cnc(N)nc4)nc12)CCN3 showed an IC50 (second compound 0.00316 µM) of 65.3 nM, an IC50 (second compound 0.01 µM) of under 31.6 nM and an IC50 (second compound 0.0316 µM) of under 31.6 nM. The IC50 (second compound 0.1 µM) was under 31.6 nM, the IC50 (second compound 0.316 µM) was under 31.6 nM and the IC50 (second compound 1 µM) was under 31.6 nM. It also gave a viability, T/C [1] of 78.4%, a viability, T/C [2] of 32.4% and a viability, T/C [3] of 17.5%. The viability, T/C [4] was 8.98%, the viability, T/C [5] was 9.36% and the viability, T/C [6] was 6.51%. It also gave a viability, T/C [7] of 47.8%, a viability, T/C [8] of 20.9% and a viability, T/C [9] of 13.7%. The viability, T/C [10] was 10.1%, the viability, T/C [11] was 8.35% and the viability, T/C [12] was 5.59%. It also gave a viability, T/C [13] of 16.9%, a viability, T/C [14] of 7.55% and a viability, T/C [15] of 10.6%. The viability, T/C [16] was 3.62%, the viability, T/C [17] was 3.8% and the viability, T/C [18] was 4.03%. It also gave a viability, T/C [19] of 5.72%, a viability, T/C [20] of 4.46% and a viability, T/C [21] of 3%. It also gave a viability, T/C [22] of 3.2%, a viability, T/C [23] of 1.5% and a viability, T/C [24] of 0.18%. For the same molecule, the viability, T/C [25] was 3.44%, the viability, T/C [26] was 0.58% and the viability, T/C [27] was 0.7%. It also gave a viability, T/C [28] of 0.32%, a viability, T/C [29] of 0.85% and a viability, T/C [30] of 0.1%. The viability, T/C [31] was 0.56%, the viability, T/C [32] was 0.38% and the viability, T/C [33] was 0.53%. The viability, T/C [34] was 0.17%, the viability, T/C [35] was 0.22% and the viability, T/C [36] was 0.16%.

`CC(Cn1ccc(-c2ccc(C#N)c(Cl)c2)n1)NC(=O)c1cc(C(C)O)[nH]n1` (stereo not drawn) + COc1c(OCCCN2CCOCC2)ccc2c3n(c(=NC(=O)c4cnc(N)nc4)nc12)CCN3 was tested, and the IC50 (second compound 0.00316 µM) was over 10000 nM, the IC50 (second compound 0.01 µM) was over 10000 nM and the IC50 (second compound 0.0316 µM) was over 10000 nM. For the same molecule, the IC50 (second compound 0.1 µM) was under 31.6 nM, the IC50 (second compound 0.316 µM) was under 31.6 nM and the IC50 (second compound 1 µM) was under 31.6 nM. The viability, T/C [1] was 94.2%, the viability, T/C [2] was 92.1% and the viability, T/C [3] was 101%. For the same molecule, the viability, T/C [4] was 105%, the viability, T/C [5] was 116% and the viability, T/C [6] was 86.9%. The viability, T/C [7] was 99.2%, the viability, T/C [8] was 100% and the viability, T/C [9] was 101%. For the same molecule, the viability, T/C [10] was 108%, the viability, T/C [11] was 93.3% and the viability, T/C [12] was 90.1%. For the same molecule, the viability, T/C [13] was 74.7%, the viability, T/C [14] was 74.9% and the viability, T/C [15] was 69.2%. It also gave a viability, T/C [16] of 70.9%, a viability, T/C [17] of 75.5% and a viability, T/C [18] of 58%. For the same molecule, the viability, T/C [19] was 16.7%, the viability, T/C [20] was 17.3% and the viability, T/C [21] was 17.4%. For the same molecule, the viability, T/C [22] was 15.9%, the viability, T/C [23] was 19% and the viability, T/C [24] was 17%. For the same molecule, the viability, T/C [25] was 6.31%, the viability, T/C [26] was 6.68% and the viability, T/C [27] was 3.61%. The viability, T/C [28] was 6.24%, the viability, T/C [29] was 6.1% and the viability, T/C [30] was 4.81%. It also gave a viability, T/C [31] of 3.61%, a viability, T/C [32] of 3.8% and a viability, T/C [33] of 2.93%. The viability, T/C [34] was 2.25%, the viability, T/C [35] was 3.36% and the viability, T/C [36] was 2.45%.

`CC1(C)CCC(Nc2ncc(C(F)(F)F)c(-c3c[nH]c4c(P(C)(C)=O)c(C#N)ccc34)n2)CN1` (stereo not drawn) + COc1c(OCCCN2CCOCC2)ccc2c3n(c(=NC(=O)c4cnc(N)nc4)nc12)CCN3 gave an IC50 (second compound 0.00316 µM) of 3590 nM, an IC50 (second compound 0.01 µM) of 1230 nM and an IC50 (second compound 0.0316 µM) of under 31.6 nM. The IC50 (second compound 0.1 µM) was under 31.6 nM, the IC50 (second compound 0.316 µM) was under 31.6 nM and the IC50 (second compound 1 µM) was under 31.6 nM. It also gave a viability, T/C [1] of 64.8%, a viability, T/C [2] of 57.4% and a viability, T/C [3] of 52%. It also gave a viability, T/C [4] of 55.4%, a viability, T/C [5] of 56.2% and a viability, T/C [6] of 0.33%. It also gave a viability, T/C [7] of 71.5%, a viability, T/C [8] of 54.7% and a viability, T/C [9] of 50.8%. It also gave a viability, T/C [10] of 54.1%, a viability, T/C [11] of 40.6% and a viability, T/C [12] of 0.85%. For the same molecule, the viability, T/C [13] was 37.3%, the viability, T/C [14] was 36.6% and the viability, T/C [15] was 26.8%. It also gave a viability, T/C [16] of 25.9%, a viability, T/C [17] of 14.5% and a viability, T/C [18] of 1.27%. It also gave a viability, T/C [19] of 7.6%, a viability, T/C [20] of 10.5% and a viability, T/C [21] of 7.54%. It also gave a viability, T/C [22] of 6.56%, a viability, T/C [23] of 5.27% and a viability, T/C [24] of 1.02%. It also gave a viability, T/C [25] of 2.73%, a viability, T/C [26] of 3.91% and a viability, T/C [27] of 3.66%. The viability, T/C [28] was 3.38%, the viability, T/C [29] was 1.31% and the viability, T/C [30] was 0.34%. It also gave a viability, T/C [31] of 2.08%, a viability, T/C [32] of 1.57% and a viability, T/C [33] of 1.5%. For the same molecule, the viability, T/C [34] was 1.26%, the viability, T/C [35] was 1.04% and the viability, T/C [36] was 0.42%.

`Cn1cnc2c(F)c(Nc3ccc(Br)cc3Cl)c(C(=O)NOCCO)cc21` + Cc1nc(NC(=O)N2CCCC2C(N)=O)sc1-c1ccnc(C(C)(C)C(F)(F)F)c1 was tested, and the IC50 (second compound 0.0316 µM) was 117 nM, the IC50 (second compound 0.1 µM) was 66.7 nM and the IC50 (second compound 0.316 µM) was 34.1 nM. For the same molecule, the IC50 (second compound 1 µM) was under 9.49 nM, the IC50 (second compound 3.16 µM) was under 9.49 nM and the IC50 (second compound 10 µM) was under 9.49 nM. For the same molecule, the viability, T/C (second compound 0.0316 µM, first compound 0.00949 µM) was 107%, the viability, T/C (second compound 0.0316 µM, first compound 0.03 µM) was 80.3% and the viability, T/C (second compound 0.0316 µM, first compound 0.0949 µM) was 52.4%. The viability, T/C (second compound 0.0316 µM, first compound 0.3 µM) was 34.5%, the viability, T/C (second compound 0.0316 µM, first compound 0.949 µM) was 16.1% and the viability, T/C (second compound 0.0316 µM, first compound 3 µM) was 6.83%. The viability, T/C (second compound 0.1 µM, first compound 0.00949 µM) was 100%, the viability, T/C (second compound 0.1 µM, first compound 0.03 µM) was 67.8% and the viability, T/C (second compound 0.1 µM, first compound 0.0949 µM) was 42.1%. The viability, T/C (second compound 0.1 µM, first compound 0.3 µM) was 25.4%, the viability, T/C (second compound 0.1 µM, first compound 0.949 µM) was 13% and the viability, T/C (second compound 0.1 µM, first compound 3 µM) was 9.02%. It also gave a viability, T/C (second compound 0.316 µM, first compound 0.00949 µM) of 76.8%, a viability, T/C (second compound 0.316 µM, first compound 0.03 µM) of 53.5% and a viability, T/C (second compound 0.316 µM, first compound 0.0949 µM) of 28.9%. For the same molecule, the viability, T/C (second compound 0.316 µM, first compound 0.3 µM) was 18.5%, the viability, T/C (second compound 0.316 µM, first compound 0.949 µM) was 8.47% and the viability, T/C (second compound 0.316 µM, first compound 3 µM) was 3.53%. It also gave a viability, T/C (second compound 1 µM, first compound 0.00949 µM) of 48.1%, a viability, T/C (second compound 1 µM, first compound 0.03 µM) of 28.6% and a viability, T/C (second compound 1 µM, first compound 0.0949 µM) of 16.6%. It also gave a viability, T/C (second compound 1 µM, first compound 0.3 µM) of 5.87%, a viability, T/C (second compound 1 µM, first compound 0.949 µM) of 4.04% and a viability, T/C (second compound 1 µM, first compound 3 µM) of 1.48%. It also gave a viability, T/C (second compound 3.16 µM, first compound 0.00949 µM) of 23%, a viability, T/C (second compound 3.16 µM, first compound 0.03 µM) of 10.6% and a viability, T/C (second compound 3.16 µM, first compound 0.0949 µM) of 5.72%. It also gave a viability, T/C (second compound 3.16 µM, first compound 0.3 µM) of 3.73%, a viability, T/C (second compound 3.16 µM, first compound 0.949 µM) of 2.72% and a viability, T/C (second compound 3.16 µM, first compound 3 µM) of 0.62%. It also gave a viability, T/C (second compound 10 µM, first compound 0.00949 µM) of 3.43%, a viability, T/C (second compound 10 µM, first compound 0.03 µM) of 3.24% and a viability, T/C (second compound 10 µM, first compound 0.0949 µM) of 1.7%. For the same molecule, the viability, T/C (second compound 10 µM, first compound 0.3 µM) was 2.06%, the viability, T/C (second compound 10 µM, first compound 0.949 µM) was 1.21% and the viability, T/C (second compound 10 µM, first compound 3 µM) was 0.89%.
